In the NIST ThermoML archive (doi:10.1016/j.fluid.2006.02.002):
± gives the expanded uncertainty stated by the source.

Conditions: Liquid; ebulliometry

Row | SMILES | Normal boiling temperature [°C]
1 | CNC(C)=O [N-methylacetamide] | 204.92 ± 0.2
2 | CN1CCCC1=O [N-methylpyrrolidone] | 203.86 ± 0.2
3 | CC(=O)O [acetic acid] | 117.70 ± 0.2
4 | O [water] | 99.81 ± 0.2
